Laboratory results reported in patent US11952363B2, “Piperazine compounds for the treatment of autoimmune disease” (Hoffmann-La Roche Inc., priority 2018, dated 2024).

Key:
CYP2D6 = target: T1, CYP2D6 (Homo sapiens, UniProt P10635); assay: CYP inhibition assay in human liver microsome; format: in vitro ADME; conditions: liver microsomes, probe dextromethorphan, 10 μM compound, dextromethorphan substrate, percentage inhibition < 0: not or weak inhibitor, read-out: CYP 2D6 inhibition % @10 μM
T1 construct: tissue BD-Gentest 452117; host or cells: human liver microsomes
T1 sequence (P10635 whole entry): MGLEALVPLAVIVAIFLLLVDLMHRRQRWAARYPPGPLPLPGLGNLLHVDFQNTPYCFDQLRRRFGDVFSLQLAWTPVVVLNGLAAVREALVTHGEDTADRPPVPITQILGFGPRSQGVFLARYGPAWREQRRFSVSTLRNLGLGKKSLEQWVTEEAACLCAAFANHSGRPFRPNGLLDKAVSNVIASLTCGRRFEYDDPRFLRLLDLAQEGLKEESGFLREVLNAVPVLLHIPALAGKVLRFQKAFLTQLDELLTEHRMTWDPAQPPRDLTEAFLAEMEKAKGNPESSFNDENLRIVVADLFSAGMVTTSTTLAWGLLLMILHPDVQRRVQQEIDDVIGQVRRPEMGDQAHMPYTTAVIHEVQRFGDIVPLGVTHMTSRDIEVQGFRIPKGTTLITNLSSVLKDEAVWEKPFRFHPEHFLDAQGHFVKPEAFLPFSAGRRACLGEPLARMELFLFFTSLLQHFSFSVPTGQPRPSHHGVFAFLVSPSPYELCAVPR
Method: This is a high throughput screening assay used for assessment of reversible inhibition of CYP2D6 activity of test compounds in human liver microsome (HLM) in early discovery stage.
10 mM DMSO stock solutions of test compounds were diluted in DMSO to generate 2 mM intermediate stock solution. 250 nL of intermediate stock solution were transferred in duplicate into 3 separate 384 well microtitre plates (assay-ready plates). A mixture of HLM and each substrate was made up. 45 μL of HLM substrate mix was then transferred to each well of an assay ready plate and mixed. The negative (solvent) and positive control (standard inhibitor for CYP 2D6) were included in each assay ready plate. The assay ready plate was warmed to 37° C. in an incubator over 10 minutes. 5μL pre-warmed NADPH regenerating system was added to each incubation well to start the reaction. Final incubation volume was 50 μL. The assay plate then was placed back in the 37° C. incubator. After 10 minutes incubation, incubates were quenched by addition of 50 μL 100% acetonitrile containing internal standards (20 ng/mL D3-Dextrorphan). The supernatants were collected for RapidFire/MS/MS analysis.
RapidFire online solid phase extraction/sample injection system (Agilent) coupled with API4000 triple quadrupole mass spectrometer (AB Sciex) were used for sample analysis. The mobile phase composed of acetonitrile and water supplemented with 0.1% formic acid. A C4 solid phase extraction cartridge is used for sample separation. MS detection is achieved in positive ion MRM mode.
Peak areas for substrate, metabolite and internal standard are determined using the RapidFire integrator software (version 3.6.12009.12296). Peak area ratios (PAR) of metabolite and internal standard (stable-labelled metabolite) are then calculated. The measurement window for each experiment is then defined:
PAR (0% activity)=average PAR for all incubations containing concentrated inhibitor;
Par (100% activity)=average PAR for all incubations containing no inhibitor (DMSO controls);
% Activity (test inhibitor)
=[PAR(test inhibitor)-PAR(0% activity)]/[PAR(100% activity)-PAR(0% activity)];
% Inhibition (test inhibitor)=100-% Activity (test inhibitor).

human TLR9 = target: T2, human TLR9 (Homo sapiens, UniProt Q9NR96); assay: HEK293-Blue-hTLR-9 cells assay (SEAP reporter, ODN2006 stimulation); format: cell-based; conditions: HEK293-Blue-hTLR9 cells, ODN2006 ligand, 20 hrs incubation; read-out: HEK/hTLR9 IC50
T2 sequence (Q9NR96 26-1032): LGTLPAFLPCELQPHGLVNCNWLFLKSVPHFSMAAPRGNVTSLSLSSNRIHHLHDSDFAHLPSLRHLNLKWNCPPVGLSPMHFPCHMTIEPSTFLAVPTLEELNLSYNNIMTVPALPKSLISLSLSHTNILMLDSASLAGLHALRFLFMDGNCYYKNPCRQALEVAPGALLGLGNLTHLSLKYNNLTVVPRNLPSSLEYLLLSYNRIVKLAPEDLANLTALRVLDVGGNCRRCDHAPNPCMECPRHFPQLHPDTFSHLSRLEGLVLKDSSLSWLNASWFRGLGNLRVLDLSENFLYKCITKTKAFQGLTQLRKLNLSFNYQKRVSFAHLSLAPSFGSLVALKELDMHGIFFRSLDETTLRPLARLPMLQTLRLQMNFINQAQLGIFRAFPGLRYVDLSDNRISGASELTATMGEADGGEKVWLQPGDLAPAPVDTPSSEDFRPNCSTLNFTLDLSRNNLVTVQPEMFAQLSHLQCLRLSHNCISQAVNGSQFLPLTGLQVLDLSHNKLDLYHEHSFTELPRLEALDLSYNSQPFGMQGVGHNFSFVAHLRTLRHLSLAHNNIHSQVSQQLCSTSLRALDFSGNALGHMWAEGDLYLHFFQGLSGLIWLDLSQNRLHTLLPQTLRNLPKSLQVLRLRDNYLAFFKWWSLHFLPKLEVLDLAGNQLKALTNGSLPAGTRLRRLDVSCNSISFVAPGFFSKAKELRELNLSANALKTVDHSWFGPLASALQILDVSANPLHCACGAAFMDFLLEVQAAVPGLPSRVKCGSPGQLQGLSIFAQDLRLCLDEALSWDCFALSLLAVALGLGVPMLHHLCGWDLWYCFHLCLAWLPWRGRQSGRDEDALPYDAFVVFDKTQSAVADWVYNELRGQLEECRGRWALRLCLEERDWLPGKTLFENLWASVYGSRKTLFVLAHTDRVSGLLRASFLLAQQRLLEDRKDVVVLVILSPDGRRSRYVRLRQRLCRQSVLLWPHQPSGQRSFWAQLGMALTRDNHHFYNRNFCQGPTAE
Method: The following tests were carried out in order to determine the activity of the compounds of formula (I) in HEK293-Blue-hTLR-7/8/9 cells assay.
A stable HEK293-Blue-hTLR-9 cell line was purchased from InvivoGen (Cat.#: hkb-htlr9, San Diego, California, USA). These cells were originally designed for studying the stimulation of human TLR9 by monitoring the activation of NF-κB. A SEAP (secreted embryonic alkaline phosphatase) reporter gene was placed under the control of the IFN-β minimal promoter fused to five NF-κB and. AP-1-binding sites. The SEAP was induced by activating NF-κB and AP-1 via stimulating HEK-Blue hTLR9 cells with TLR9 ligands. Therefore the reporter expression was declined by TLR9 antagonist under the stimulation of a ligand, such as ODN2006 (Cat.#: tlr1-2006-1, Invivogen, San Diego, California, USA), for incubation of 20 his. The cell culture supernatant SEAP reporter activity was determined using QUANTI-Blue™ kit (Cat.#: rep-qb1, Invivogen, San Diego, California, USA) at a wavelength of 640 nm, a detection medium that turns purple or blue in the presence of alkaline phosphatase.
HEK293-Blue-hTLR9 cells were incubated at a density of 250,000-450,000 cells/mL in a volume of 170 μL in a 96-well plate in Dulbecco's Modified Eagle's medium (DMEM) containing 4.5 g/L glucose, 50 U/mL penicillin, […], […], 2 mM L-glutamine, 10% (v/v) heat-inactivated fetal bovine serum with addition of 20 μL test compound in a serial dilution in the presence of final DMSO at 1% and 10 p L of 20uM ODN2006 in above DMEM, perform incubation under 37° C. in a CO2 incubator for 20 hrs. Then 20 μL of the supernatant from each well was incubated with 180 μL Quanti-blue substrate solution at 37° C. for 2 h and the absorbance was read at 620˜655 nm using a spectrophotometer. The signaling pathway that TLR9 activation leads to downstream NF-κB activation has been widely accepted, and therefore similar reporter assay was modified for evaluating TLR9 antagonist.

SMILES	inhibition at 10 min, 10 µM (CYP2D6)	IC50 (human TLR9)
C[C@@H]1CN(c2ccc(C#N)c3ncccc23)C[C@H](C)N1Cc1ccc(N2CCN(C(=O)CN(C)C)CC2)cn1 [Example 11, 5-[(3S,5R)-4-[[5-[4-[2-(Dimethylamino)acetyl]piperazin-1-yl]-2-pyridyl]methyl]-3,5-dimethyl-piperazin-1-yl]quinoline-8-carbonitrile]	23%	96 nM
C[C@@H]1CN(c2ccc(C#N)c3ncccc23)C[C@H](C)N1CC(=O)N1Cc2ccc(N3CCNCC3)cc2C1 [Example 16, 5-[(3R,5S)-3,5-Dimethyl-4-[2-oxo-2-(5-piperazin-1-ylisoindolin-2-yl)ethyl]piperazin-1-yl]quinoline-8-carbonitrile]	2%	75 nM
CC1CN(c2ccc(C#N)c3ncccc23)CCN1CC(=O)Nc1ccc(N2CCNCC2)cc1 (stereo not drawn) [Example 17, 2-[4-(8-Cyano-5-quinolyl)-2-methyl-piperazin-1-yl]-N-(4-piperazin-1-ylpheny)acetamide]	7%	103 nM
CC1CN(c2ccc(C#N)c3ncccc23)CCN1CC(=O)N1CCC(C2CCN(C)CC2)CC1 (stereo not drawn) [Example 19, 5-[3-methyl-4-[2-[4-(1-methyl-4-piperidyl)-1-piperidyl]-2-oxo-ethyl]piperazin-1-yl]quinoline-8-carbonitrile]	14.5%	116 nM
C[C@@H]1CN(c2ccc(C#N)c3ncccc23)C[C@H](C)N1CC(=O)N1CCc2nc(N3CCNCC3)ccc2C1 [Example 13, 5-[(3R,5S)-3,5-Dimethyl-4-[2-oxo-2-(2-piperazin-1-yl-7,8-dihydro-5H-1,6-naphthyridin-6-yl)ethyl]piperazin-1-yl]quinoline-8-carbonitrile]	–	132 nM
C[C@@H]1CN(c2ccc(C#N)c3ncccc23)C[C@H](C)N1Cc1ccc(N2CCNCC2CO)cc1 (stereo partly drawn) [Example 12, 5-[(3R,5S)-4-[[4-[2-(Hydroxymethyl)piperazin-1-yl]phenyl]methyl]-3,5-dimethyl-piperazin-1-yl]quinoline-8-carbonitrile]	–	60 nM
C[C@@H]1CN(c2ccc(C#N)c3ncccc23)C[C@H](C)N1CC(=O)N1CCc2cc(N3CCNCC3)ccc2C1 [Example 14, 5-[(3R,5S)-3,5-Dimethyl-4-[2-oxo-2-(6-piperazin-1-yl-3,4-dihyrdo-1H-isoquinolin-2-yl)ethyl]piperazin-1-yl]quinoline-8-carbonitrile]	–	116 nM

The remaining lines, values ahead:

inhibition at 10 min, 10 µM (CYP2D6)	IC50 (human TLR9)	SMILES
–	120 nM	C[C@@H]1CN(c2ccc(C#N)c3ncccc23)C[C@H](C)N1Cc1ccc(N2CCN(C)CC2)cn1 [Example 7, 5-[(3S,5R)-3,5-dimethyl-4-[[5-(4-methylpiperazin-1-yl)-2-pyridyl]methyl]piperazin-1-yl]quinoline-8-carbonitrile]
5.5%	84 nM	C[C@@H]1CN(c2ccc(C#N)c3ncccc23)C[C@H](C)N1Cc1ccc(N2CCNCC2)cn1 [Example 5, 5-[(3S,5R)-3,5-Dimethyl-4-[(5-piperazin-1-yl-2-pyridyl)methyl]piperazin-1-yl]quinoline-8-carbonitrile]
–	65 nM	C[C@@H]1CN(c2ccc(C#N)c3ncccc23)C[C@@H](C)N1Cc1ccc(N2CCNCC2)cc1 [Example 2]
17%	39 nM	C[C@@H]1CN(c2ccc(C#N)c3ncccc23)C[C@H](C)N1Cc1ccc(N2CCNCC2)cc1 [Example 1, 5-[(3R,5S)-3,5-Dimethyl-4-[(4-piperazin-1-ylphenyl)methyl]piperazin-1-yl]quinoline-8-carbonitrile]
–	137 nM	C[C@@H]1CN(c2ccc(C#N)c3ncccc23)C[C@H](C)N1Cc1ncc(N2CCNCC2)cn1 [Example 4, 5-[(3S,5R)-3,5-Dimethyl-4-[(5-piperazin-1-ylpyrimidin-2-yl)methyl]piperazin-1-yl]quinoline-8-carbonitrile]
